Numbering of substitutions follows the chain as printed.
How the values were obtained:
[1] = target: T1, human PNPO wild type (Homo sapiens, UniProt Q9NVS9)
T1 sequence (Q9NVS9 1-261): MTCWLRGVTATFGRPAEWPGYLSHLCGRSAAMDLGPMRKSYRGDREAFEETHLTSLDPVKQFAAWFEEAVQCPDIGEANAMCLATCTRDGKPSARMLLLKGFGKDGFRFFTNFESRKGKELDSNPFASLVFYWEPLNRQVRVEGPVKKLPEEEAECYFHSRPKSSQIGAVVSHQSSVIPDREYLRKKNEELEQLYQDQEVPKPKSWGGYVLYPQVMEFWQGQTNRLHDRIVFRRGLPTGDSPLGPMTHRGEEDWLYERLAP

[2] = target: T2, human PNPO F48A variant (Homo sapiens, UniProt Q9NVS9, F48A); assay: PMP oxidation kinetics, F48A variant; conditions: 50 mM Tris–HCl pH 7.6, 37°C, 2 μM enzyme
T2 sequence (Q9NVS9 1-261 F48A): T1 sequence (Q9NVS9 1-261) with F48A

Cc1ncc(COP(=O)(O)O)c(CN)c1O [PMP, pyridoxamine 5′‐phosphate]
PMP oxidation kCAT ([1]; 50 mM Tris–HCl pH 7.6, 37°C, 2 μM enzyme): 0.135 ± 0.00283 s⁻¹ | KM for PMP relative to KM for PNP ([1]; Tris–HCl pH 7.6, 37°C): 25 fold | PMP oxidation kCAT [2]: 0.1785 ± 0.003 s⁻¹
